In PubChem BioAssay (NCI):
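All cell lines were grown in 96-well plates and treated with compound for 48 hours. At the GI50, growth is halved. The concentration for full growth arrest is given as TGI.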

Assays:
Experiment in all cases: growth of human tumour cells (NCI), 48 h
SF-268 CNS = tested on: SF-268 CNS
SNB-75 CNS = tested on: SNB-75 CNS
ACHN renal = tested on: ACHN renal
U251 CNS = tested on: U251 CNS
SK-MEL-28 melanoma = tested on: SK-MEL-28 melanoma
SK-MEL-2 melanoma = tested on: SK-MEL-2 melanoma
UO-31 renal = tested on: UO-31 renal
COLO 205 colon = tested on: COLO 205 colon
OVCAR-8 ovarian = tested on: OVCAR-8 ovarian
MALME-3M melanoma = tested on: MALME-3M melanoma

Row | SMILES | GI50 (SF-268 CNS) [µM] | TGI (SF-268 CNS) [µM] | GI50 (SNB-75 CNS) [µM] | TGI (SNB-75 CNS) [µM] | GI50 (ACHN renal) [µM] | TGI (ACHN renal) [µM] | GI50 (U251 CNS) [µM] | TGI (U251 CNS) [µM] | GI50 (SK-MEL-28 melanoma) [µM] | TGI (SK-MEL-28 melanoma) [µM] | GI50 (SK-MEL-2 melanoma) [µM] | TGI (SK-MEL-2 melanoma) [µM] | GI50 (UO-31 renal) [µM] | TGI (UO-31 renal) [µM] | GI50 (COLO 205 colon) [µM] | TGI (COLO 205 colon) [µM] | GI50 (OVCAR-8 ovarian) [µM] | TGI (OVCAR-8 ovarian) [µM] | GI50 (MALME-3M melanoma) [µM] | TGI (MALME-3M melanoma) [µM]
1 | COc1ccc2c(c1)CC[C@H](O)/C2=C/c1cc(OC)c(OC)c(OC)c1 | 0.198 | > 100 | 0.0638 | > 100 | 0.227 | > 100 | 0.143 | > 100 | 3.9 | > 100 | 17.8 | > 100 | 0.222 | > 100 | 0.106 | 0.639 | 0.36 | > 100 | 0.771 | > 100
2 | FC(F)(F)C1(Br)C(c2ccccc2)=C1c1ccccc1 | – | 43.9 | – | 88.6 | – | 40.3 | – | 30.2 | – | 33.8 | – | 30 | – | 33.9 | – | 34.9 | – | 30.5 | – | 30.5
3 | O=Cc1cccc2c1Oc1c(cccc1C(=O)O)S2 | – | > 100 | – | > 100 | – | > 100 | – | > 100 | – | > 100 | – | > 100 | – | > 100 | – | 55.6 | – | > 100 | – | > 100
4 | O=C1C(Cl)C(c2ccccc2O)N1n1cnc2ccccc2c1=O (stereo not given) | – | > 100 | – | 49.6 | – | > 100 | – | > 100 | – | > 100 | – | > 100 | – | > 100 | – | > 100 | – | > 100 | – | > 100
